Measurements from patent US20170014417A1, “PHARMACEUTICAL ADMINISTRATION SYSTEM FOR THE TRANSDERMAL APPLICATION OF VARDENAFIL” (LIPP LIFE SCIENCES LLC, priority 2015, published 2017).
Read-outs that look alike come from different tables or passages of the source.

What was measured:
[1] = cited from earlier work
[2] = in vitro-permeation test through Heat Separated Human Epidermis (HSHE), Hanson Vertical Diffusion Cells; format: in vitro ADME; conditions: Formulation 3
Procedure: In a 10 mL flask with a stopper, 100 mg of vardenafil (base; from LGM Pharma) and 400 mg of isopropylmyristate were mixed with 9.5 g of 2-propanol/water (70% v/v) and shaken for 10 minutes at ambient temperature to obtain the formulation below. The resulting crystal free formulation was subjected to an in vitro-permeation test through Heat Separated Human Epidermis (HSHE), which is highly predictive for in vivo-transdermal flux rates.
Permeation experiments were conducted in duplicate (using 2 cells) following a Standard Operating Procedure for using Hanson Vertical Diffusion Cells (7 mL) mounted with Heat Separated Human Epidermis, an in vitro-experiment with high predictability for transdermal in vivo-fluxes. […]
200 mg of the formulation were applied on each Heat Separated Human Epidermis. […] Samples were withdrawn at predetermined time intervals (see Tables 1 and 2 below) and subjected to HPLC quantification of vardenafil (V).
Permeation experiments were conducted following a Standard Operating Procedure for using Hanson Vertical Diffusion Cells (7 mL) mounted with Heat Separated Human Epidermis, an in vitro-experiment with high predictability for transdermal in vivo-fluxes. […] Samples were withdrawn at predetermined time intervals (see Table 3 below) and subjected to HPLC quantification of vardenafil (V). […]

[3] = Calculation of required transdermal flux rates for the once daily treatment of erectile dysfunction (ED); conditions: human
[4] = cited from earlier work; remark: listed apart in the source

SMILES: CCCc1nn(C)c2c(=O)[nH]c(-c3cc(S(=O)(=O)N4CCN(C)CC4)ccc3OCC)nc12 [sildenafil]
- log P ([1]; Table 12): 1.9

SMILES: CN1CC(=O)N2[C@H](c3ccc4c(c3)OCO4)c3[nH]c4ccccc4c3C[C@@H]2C1=O [tadalafil]
- log P ([1]; Table 12): 1.7

SMILES: C[C@]12CC[C@H]3[C@@H](CCC4=CC(=O)CC[C@@]43C)[C@@H]1CC[C@@H]2O [testosterone]
- log P [1]: 3.4

SMILES: CCCc1nc(C)c2c(=O)[nH]c(-c3cc(S(=O)(=O)N4CCN(CC)CC4)ccc3OCC)nn12 [vardenafil]
- transdermal flux rate achieved (formulation) [2]: 27 μg/cm^2 μg/cm^2 over 24 h
- systemically available required dose for once daily treatment of ED (calculated) [3]: 0.75 mg
- calculated transdermal flux rates required to deliver systemic doses for treatment of ED upon application on 200 cm^2 ([3]; 24 h): 3.8 μg/cm^2 μg/cm^2 over 24 h
- log P ([1]; Table 12): 1.4
- log P [1]: 1.4
- plasma half-life ([4]; after oral administration): approximately 3 h
- median time to reach maximum concentration in plasma ([4]; oral administration, fasted state (Staxyn prescribing information)): 1.5 h
- absolute bioavailability ([4]; upon oral dosing in man): approximately 15%
